# Data from US5770590A, “Cyclic compounds, their prudiction and use” (Takeda Chemical Industries, Ltd., priority 1995, dated 1998).
# Legend:
# [1] = system: plasma extravasation induced by capsaicin in trachea; assay: Inhibitory effect on plasma extravasation induced by capsaicin in trachea of guinea pigs; assay type: in vivo, guinea pigs (Hartley type white male); conditions: Table 3, Dunnett's test *p < 0.05, **p < 0.01, ***p < 0.001
# Protocol: [Inhibitory effect on plasma extravasation induced by capsaicin in trachea of guinea pigs] Guinea pigs (Hartley type white male guinea pige), (n=6) were anesthetized with 35 mg/kg of pentobarbital injected intraperitoneally (i.p.), then test compounds were administered intravenously (i.v.). After 5 minutes, a mixed solution of capsaicin (150 μg/kg) and Evans' blue dye (20 mg/kg) was administered intravenously to cause reaction. Ten minutes later, test animals were sacrificed by cutting the aorta, then perfused through pulmonary artery with 50 ml of physiological saline. The trachea was excised, and its wet weight was measure. The trachea was incubated at room temperature in 1 ml of acetone-0.3% sodium sulfate (7:3) overnight and Evans' blue dye was extracted from the trachea. The extract solution was centrifuged at 2800 rpm for 5 minutes. The amount of Evans' blue dye in the supernatant was quantified by measuring absorbance at […]. Plasma extravasation was expressed in terms of the amount of Evans' blue dye (μg) relative to the weight of the trachea (g). The efficacy of the drug was evaluated by calculating the % inhibition in accordance with the following formula, or expressed in terms of [formula] A: the amount of Evan's blue dye (μg/g) in each test animal B: The mean amount of Evan's blue dye (μg/g) of the group untreated with capsaicin.
# [2] = target: T1, substance P receptor (receptor from human lymphoblast cells (IM-9)) (Homo sapiens, UniProt P25103); assay: Radioligand receptor binding inhibitory activity using receptor from human lymphoblast cells (IM-9), 125I-BHSP; conditions: Table 1, IM-9 receptor, 25° C., 30 minutes
# T1 construct: The receptor was prepared from human lymphoblast cells (IM-9); endogenous in cells; host or cells: IM-9 human lymphoblast cells (crude membranes)
# Protocol: The receptor was prepared from human lymphoblast cells (IM-9). IM-9 cells (2×10^5 cells/ml) were inoculated and incubated for 3 days (one liter), which was then subjected to centrifuge for 5 minutes at 500×g to obtain cell pellets.
# After washing three times with 250 ul of 50 mM of Tris-HCl buffer (pH 7.4) containing 0.02% bovine serum albumin, the radioactivity remaining on the filter was determined with a gamma counter. Before use, the filter was immersed in 0.1% polyethyleneimine for 24 hours and air-dried.
# T1 sequence (P25103 whole entry): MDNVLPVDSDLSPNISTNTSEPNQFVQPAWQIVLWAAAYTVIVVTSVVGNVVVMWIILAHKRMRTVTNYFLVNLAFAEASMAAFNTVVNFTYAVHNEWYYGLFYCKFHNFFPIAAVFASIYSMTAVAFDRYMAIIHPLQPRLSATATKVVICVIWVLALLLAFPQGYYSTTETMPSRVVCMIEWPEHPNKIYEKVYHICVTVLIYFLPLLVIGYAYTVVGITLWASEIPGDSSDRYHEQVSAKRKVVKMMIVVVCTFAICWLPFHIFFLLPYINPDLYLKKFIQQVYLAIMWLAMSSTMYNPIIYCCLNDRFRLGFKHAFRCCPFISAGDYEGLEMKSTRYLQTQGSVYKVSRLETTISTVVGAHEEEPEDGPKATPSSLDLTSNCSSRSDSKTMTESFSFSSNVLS
Compound,Inhibition of plasma extravasation ([1]; dose 10 μg/kg i.v.),Inhibition of plasma extravasation ([1]; dose 100 μg/kg i.v.),further results
"CC1CCn2c(c(-c3ccccc3)c3cccnc3c2=O)C(=O)N(Cc2cc(C(F)(F)F)cc(C(F)(F)F)c2)C1 (racemic) [Example 15, (+/-)-7-[3,5-Bis(trifluoromethyl)benzyl]-6,7,8,9,10,11-hexahydro-9-methyl-6,13-dioxo-5-phenyl-13H-[1,4]diazocino[2,1-g][1,7]naphthyridine]",68.4%,,
"Cc1ccc(-c2c3n(c(=O)c4ncccc24)CCC(C)CN(Cc2cc(C(F)(F)F)cc(C(F)(F)F)c2)C3=O)cc1 (racemic) [Example 16, (+/-)-7-[3,5-Bis(trifluoromethyl)benzyl]-6,7,8,9,10,11-hexahydro-9-methyl-5-(4-methylphenyl)-6,13-dioxo-13H-[1,4]diazocino[2,1-g][1,7]naphthyridine]",60.5%,,
"Cc1ccc(-c2c3n(c(=O)c4ncccc24)C[C@@H](C)CN(Cc2cc(C(F)(F)F)cc(C(F)(F)F)c2)C3=O)cc1 [Example 14, (9S)-7-[3,5-Bis(trifluoromethyl)benzyl]-6,7,8,9,10,12-hexahydro-9-methyl-5-(4-methylphenyl)-6,12-dioxo[1,4]diazepino[2,1-g][1,7]naphthyridine]",,,IC50 [2]: 0.28 nM
"O=C1c2c(-c3ccccc3)ccnc2OCCCN1Cc1cc(C(F)(F)F)cc(C(F)(F)F)c1 [Example 22, 5-[3,5-Bis(trifluoromethyl)benzyl]-2,3,4,5-tetrahydro-6-oxo-7-phenyl-6H-pyrido[2,3-b][1,5]oxazocine]",,41.2%,
"Cc1cnc2c(c1-c1ccccc1)C(=O)N(Cc1cc(C(F)(F)F)cc(C(F)(F)F)c1)CCO2 [Example 23, 4-[3,5-Bis(trifluoromethyl)benzyl]-2,3,4,5-tetrahydro-7-methyl-5-oxo-6-phenylpyrido[3,2-f][1,4]oxazepine]",,64.0%,
"Cc1cnc2c(c1-c1ccccc1)C(=O)N(Cc1cc(C(F)(F)F)cc(C(F)(F)F)c1)CCCO2 [Example 24, 5-[3,5-Bis(trifluoromethyl)benzyl]-2,3,4,5-tetrahydro-8-methyl-6-oxo-7-phenyl-6H-pyrido[2,3-b][1,5]oxazocine]",,53.1%,
